In brackets after ≈: the same amount, converted by molar mass. Bounds are passed on as bounds.

Data set [1] in a line: Kinetic solubility test in PBS pH7.4. The format is physicochemical. The settings on record: for solubility at 2 h: aqueous buffer, kinetic from dmso stock, PBS pH 7.4, 25° C.
In data set [2] the target is PI3Kβ (Homo sapiens, UniProt P42338). Put plainly: ADP-Glo luminescent assay, enzymatic activity of PI3K beta. The format is biochemical. The settings on record: ATP 25 μM; read-out: PI3K beta (nM) inhibitory activity (IC50). How it is done:
(§1) Enzymatic activity of PI3K isoforms: Enzymatic activity of the class I PI3K isoforms in the presence of the compounds of Table 1 was measured using ADP-Glo luminescent assay against PI3Kα, PI3Kβ, PI3Kδ and PI3Kγ with ATP concentration at 25 μM. IPI-549 was used as the reference compound. The compounds would be tested from 1 or 10 μM, 3-fold dilution for 10 doses, in duplicate.
(§2) Compound preparation: Dilute a compound to 100× of the final desired highest inhibitor concentration in reaction by 100% DMSO. Transfer 100 μl of this compound dilution to a well in a 96-well plate and serially dilute it with DMSO for a total of 10 concentrations.
(§3) Kinase reaction: Prepare a solution of PI3K in 1× kinase buffer at 2-fold the final concentration of each reagent in the assay. Control wells contain 1× kinase buffer without enzyme. Prepare substrate solution of PIP2 substrate and ATP in 1× kinase reaction buffer at 2-fold of the final concentration. Add concentration substrate solution to each well to the final concentration. Cover the assay plate, shake to mix, and incubate at room temperature for 1 hour. Add 5 μl of ADP-Glo reagent to each well to stop the reaction. Mix briefly with a quick spin, shake slowly on the shaker for 120 min. Add 10 ul Kinase Detection Reagent to each well, shake 1 min, equilibrate for 30 min before reading on a luminescence plate reader.
(§4) Data Analysis: Convert RLU values to percent inhibition values as Percent inhibition=(max−sample RLU)/(max−min)*100. “min”—no enzyme control; “max”—DMSO control. Fit the data in XLFit excel add-in version 5.4.0.8 to obtain IC50 values. Y=Bottom+(Top−Bottom)/(1+(IC50/X)^HillSlope).

The target of data set [3] is PI3Kα (Homo sapiens, UniProt P42336). Put plainly: ADP-Glo luminescent assay, enzymatic activity of PI3K alpha. The format is biochemical. To be noted: ATP 25 μM; read-out: PI3K alpha (nM) inhibitory activity (IC50). As to the method: as §1, §2, §3, §4
The target of data set [4] is PI3Kδ (Homo sapiens, UniProt O00329). Put plainly: ADP-Glo luminescent assay, enzymatic activity of PI3K delta. The format is biochemical. To be noted: ATP 25 μM; read-out: PI3K delta (nM) inhibitory activity (IC50).
In data set [5] the target is T1, PI3K delta (Homo sapiens, UniProt O00329).
T1 construct: endogenous in cells; host or cells: Raji
The data set can be described thus: Raji cell assay: phosphorylation of AKT in anti-IgM stimulated Raji cells (AlphaLISA). The format is cell-based. To be noted: pAKT, read-out: PI3K delta Raji cell (nM) cellular activity (IC50). As to the method:
This study aims to determine the inhibitory effect of compounds on PI3K gamma and PI3K delta in corresponding cell based assays. PI3K gamma activity was reflected by phosphorylation of AKT in C5a stimulated RAW264.7 cells, and PI3K delta activity was reflected by phosphorylation of AKT in anti-IgM stimulated Raji cells. Phosphorylation of AKT in cells was determined using AlphaLISA technology from PerkinElmer.
Raji cell assay: Prepare Passage 11 Raji cell and add 6 μL of 60K cells per well in 384-well plate. Centrifuge at 500 RPM for 30 s and incubate for 2 hours at 37° C., 5% CO2. Add 30 nL compound by Echo and incubate for 30 min at 37° C. Add 2 μL of IgM (4×, 12 μg/mL) per well, centrifuge at 500 RPM for 30 s and incubate for 10 min at 37° C. Add 2 μL of 5× lysis buffer by Multidrop. Shake 10 min on a plate shaker. Add 5 μL acceptor mix provided in the kit. Centrifuge at 1000 RPM for 1 min. Add 5 μL donor mix provided in the kit. Centrifuge at 1000 RPM for 1 min. Then incubate for 2 hours at 25° C., keep the plate in dark. Read AlphaLISA signal on Envision.
Data analysis: Fit the cpd IC50 from non-linear regression equation. Y=Bottom+(Top−Bottom)/(1+10^((Log IC50−X)*Hill Slope)) X: Log of cpd concentration Y: Inhibition

Chain of PI3Kα (P42336 whole entry, species assumed): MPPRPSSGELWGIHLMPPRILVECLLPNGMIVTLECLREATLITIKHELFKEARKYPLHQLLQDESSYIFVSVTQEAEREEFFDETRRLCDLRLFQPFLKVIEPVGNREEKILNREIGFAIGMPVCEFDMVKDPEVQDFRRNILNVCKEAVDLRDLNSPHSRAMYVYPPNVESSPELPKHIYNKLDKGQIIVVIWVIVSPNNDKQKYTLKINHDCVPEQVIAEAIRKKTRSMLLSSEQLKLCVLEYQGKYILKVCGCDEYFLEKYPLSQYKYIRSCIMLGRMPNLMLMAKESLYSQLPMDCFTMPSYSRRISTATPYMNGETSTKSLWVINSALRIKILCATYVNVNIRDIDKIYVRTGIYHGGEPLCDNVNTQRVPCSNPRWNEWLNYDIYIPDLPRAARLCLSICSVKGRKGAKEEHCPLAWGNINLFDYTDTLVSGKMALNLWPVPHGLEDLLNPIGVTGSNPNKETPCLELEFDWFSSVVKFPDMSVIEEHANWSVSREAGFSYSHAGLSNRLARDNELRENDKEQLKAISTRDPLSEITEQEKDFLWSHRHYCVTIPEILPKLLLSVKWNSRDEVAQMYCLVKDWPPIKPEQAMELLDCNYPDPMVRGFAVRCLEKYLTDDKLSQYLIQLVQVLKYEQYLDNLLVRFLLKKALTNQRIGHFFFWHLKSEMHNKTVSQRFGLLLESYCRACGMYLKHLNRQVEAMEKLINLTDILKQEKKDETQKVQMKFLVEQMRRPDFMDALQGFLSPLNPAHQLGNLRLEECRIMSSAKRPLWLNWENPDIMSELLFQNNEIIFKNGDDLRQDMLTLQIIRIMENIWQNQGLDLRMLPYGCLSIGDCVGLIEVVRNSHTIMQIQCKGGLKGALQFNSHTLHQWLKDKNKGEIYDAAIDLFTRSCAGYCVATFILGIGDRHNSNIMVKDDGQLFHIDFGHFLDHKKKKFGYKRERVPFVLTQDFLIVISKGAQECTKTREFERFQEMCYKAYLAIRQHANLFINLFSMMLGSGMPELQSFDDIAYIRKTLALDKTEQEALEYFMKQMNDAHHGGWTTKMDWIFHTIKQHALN
Chain of PI3Kα (P27986 whole entry partner, species assumed): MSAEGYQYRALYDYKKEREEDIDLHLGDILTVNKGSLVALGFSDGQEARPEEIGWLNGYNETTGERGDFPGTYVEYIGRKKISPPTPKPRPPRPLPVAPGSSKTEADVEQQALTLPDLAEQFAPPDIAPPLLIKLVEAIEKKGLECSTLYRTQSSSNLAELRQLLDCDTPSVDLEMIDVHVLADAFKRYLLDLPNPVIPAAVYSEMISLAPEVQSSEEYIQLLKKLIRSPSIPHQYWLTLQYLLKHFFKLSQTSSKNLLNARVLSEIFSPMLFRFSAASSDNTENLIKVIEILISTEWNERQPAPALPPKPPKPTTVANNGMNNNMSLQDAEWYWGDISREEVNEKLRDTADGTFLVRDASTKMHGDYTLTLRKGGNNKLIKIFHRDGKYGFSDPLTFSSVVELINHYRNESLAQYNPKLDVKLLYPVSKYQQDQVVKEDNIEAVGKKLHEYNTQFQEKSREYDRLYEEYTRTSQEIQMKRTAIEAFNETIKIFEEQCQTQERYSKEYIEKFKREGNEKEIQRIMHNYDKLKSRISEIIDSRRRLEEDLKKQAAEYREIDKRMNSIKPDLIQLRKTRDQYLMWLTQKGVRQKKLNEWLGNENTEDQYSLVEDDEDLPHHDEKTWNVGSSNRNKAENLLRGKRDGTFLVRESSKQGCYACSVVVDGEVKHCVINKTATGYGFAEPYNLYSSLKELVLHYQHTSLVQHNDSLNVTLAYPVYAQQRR
Chain of PI3Kδ (O00329 whole entry, species assumed): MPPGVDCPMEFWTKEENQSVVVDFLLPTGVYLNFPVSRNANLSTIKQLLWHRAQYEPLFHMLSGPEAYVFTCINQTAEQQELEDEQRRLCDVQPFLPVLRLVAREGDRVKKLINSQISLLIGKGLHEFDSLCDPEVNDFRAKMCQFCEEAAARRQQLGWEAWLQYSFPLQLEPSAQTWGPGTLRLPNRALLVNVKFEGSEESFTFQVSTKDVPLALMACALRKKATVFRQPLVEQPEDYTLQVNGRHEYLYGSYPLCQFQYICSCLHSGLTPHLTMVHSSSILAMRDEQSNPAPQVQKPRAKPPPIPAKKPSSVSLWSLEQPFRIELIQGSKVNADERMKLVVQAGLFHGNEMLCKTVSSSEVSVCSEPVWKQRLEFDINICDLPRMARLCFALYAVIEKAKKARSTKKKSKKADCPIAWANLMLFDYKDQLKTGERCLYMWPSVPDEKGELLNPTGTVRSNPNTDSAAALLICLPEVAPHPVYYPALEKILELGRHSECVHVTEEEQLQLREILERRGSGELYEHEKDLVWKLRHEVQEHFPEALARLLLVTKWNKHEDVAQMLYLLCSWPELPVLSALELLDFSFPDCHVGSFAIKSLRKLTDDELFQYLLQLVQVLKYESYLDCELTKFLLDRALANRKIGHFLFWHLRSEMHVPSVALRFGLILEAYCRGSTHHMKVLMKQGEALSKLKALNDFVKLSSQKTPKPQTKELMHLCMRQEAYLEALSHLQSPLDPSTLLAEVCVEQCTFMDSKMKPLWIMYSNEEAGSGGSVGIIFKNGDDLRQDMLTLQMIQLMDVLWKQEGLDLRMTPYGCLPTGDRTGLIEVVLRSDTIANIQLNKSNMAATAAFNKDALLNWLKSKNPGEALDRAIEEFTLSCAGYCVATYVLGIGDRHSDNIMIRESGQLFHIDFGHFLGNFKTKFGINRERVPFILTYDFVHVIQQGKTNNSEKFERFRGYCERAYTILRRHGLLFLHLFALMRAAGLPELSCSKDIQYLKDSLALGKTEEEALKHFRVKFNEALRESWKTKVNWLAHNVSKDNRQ
Chain of PI3Kδ (P27986 whole entry partner, species assumed): as the sequence (P27986 whole entry partner, species assumed) above
T1 sequence (O00329 whole entry): as the sequence (O00329 whole entry, species assumed) above
T1 sequence (P27986 whole entry partner): as the sequence (P27986 whole entry partner, species assumed) above
Chain of PI3Kβ (P42338 whole entry, species assumed, canonical isoform): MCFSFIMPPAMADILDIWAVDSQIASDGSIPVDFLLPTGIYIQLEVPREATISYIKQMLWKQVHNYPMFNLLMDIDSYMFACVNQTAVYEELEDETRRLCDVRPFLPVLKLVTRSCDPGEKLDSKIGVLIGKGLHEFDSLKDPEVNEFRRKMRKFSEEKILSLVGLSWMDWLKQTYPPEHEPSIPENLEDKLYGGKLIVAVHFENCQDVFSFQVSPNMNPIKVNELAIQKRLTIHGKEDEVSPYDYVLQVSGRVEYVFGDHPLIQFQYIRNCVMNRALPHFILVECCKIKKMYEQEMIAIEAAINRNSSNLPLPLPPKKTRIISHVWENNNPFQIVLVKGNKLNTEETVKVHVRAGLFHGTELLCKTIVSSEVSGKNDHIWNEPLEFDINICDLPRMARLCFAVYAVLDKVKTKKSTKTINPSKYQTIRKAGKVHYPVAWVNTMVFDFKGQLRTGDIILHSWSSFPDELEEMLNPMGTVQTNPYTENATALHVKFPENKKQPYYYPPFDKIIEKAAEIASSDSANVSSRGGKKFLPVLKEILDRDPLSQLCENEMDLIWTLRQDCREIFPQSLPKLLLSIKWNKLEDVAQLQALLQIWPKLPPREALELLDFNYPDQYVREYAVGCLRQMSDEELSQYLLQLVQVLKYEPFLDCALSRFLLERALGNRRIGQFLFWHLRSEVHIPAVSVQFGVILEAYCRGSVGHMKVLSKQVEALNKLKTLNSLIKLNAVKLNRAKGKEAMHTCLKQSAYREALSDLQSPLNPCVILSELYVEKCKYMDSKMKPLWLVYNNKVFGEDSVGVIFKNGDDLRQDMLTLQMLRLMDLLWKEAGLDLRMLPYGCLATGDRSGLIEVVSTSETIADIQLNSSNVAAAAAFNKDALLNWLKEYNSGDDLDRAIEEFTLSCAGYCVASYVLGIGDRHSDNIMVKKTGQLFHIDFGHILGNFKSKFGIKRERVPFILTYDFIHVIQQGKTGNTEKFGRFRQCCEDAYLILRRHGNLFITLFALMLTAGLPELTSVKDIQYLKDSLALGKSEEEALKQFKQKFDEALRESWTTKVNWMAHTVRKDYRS
Chain of PI3Kβ (P27986 whole entry partner, species assumed, canonical isoform): as the sequence (P27986 whole entry partner, species assumed) above

For `CC(=O)Nc1nc(C)c(-c2cc3c(c(NS(C)(=O)=O)n2)C(=O)N([C@@H](C)C2CC2)C3)s1` [Compound 20, (S)-N-(5-(2-(1-cyclopropylethyl)-4-(methylsulfonamido)-3-oxo-2,3-dihydro-1H-pyrrolo[3,4-c]pyridin-6-yl)-4-methylthiazol-2-yl)acetamide], the solubility at 2 h in data set [1] amounted to 240 µM (≈ 108 µg/mL). For the same compound, the “fold improvement over AZ-17 in kinetic solubility test” value in data set [1] (physiologic pH) is recorded as more than 200 fold. The IC50 was more than 10000 nM in data set [2], 3890 nM in data set [3], 1170 nM in data set [4] and 2160 nM in data set [5].
In the case of `CC(=O)Nc1nc(C)c(-c2cc3c(c(N4CCOCC4)n2)C(=O)N([C@@H](C)C2CC2)C3)s1` [Compound 34, (S)-N-(5-(2-(1-cyclopropylethyl)-4-morpholino-3-oxo-2,3-dihydro-M-pyrrolo[3,4-c]pyridin-6-yl)-4-methylthiazol-2-yl)acetamide], the solubility at 2 h in data set [1] is 9.6 µM (≈ 4.24 µg/mL). Further, the IC50 is more than 10000 nM in data set [2], 3330 nM in data set [3], more than 1000 nM in data set [4] and 1960 nM in data set [5].
